Laboratory results as given in the supplement of paper PMC10307832.

Assays:
Experiment in all cases: relative viability (nuclei count vs DMSO), 5 days (fraction); higher = more cells survive
Tivantinib + Bortezomib = compound: O=C1NC(=O)[C@@H](c2cn3c4c(cccc24)CCC3)[C@@H]1c1c[nH]c2ccccc12 [Tivantinib] + CC(C)C[C@H](NC(=O)[C@H](Cc1ccccc1)NC(=O)c1cnccn1)B(O)O [Bortezomib] (partner 0.002 µM)
How it was run: (§1)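 Dosing by pin tool came one day after lung cancer cell lines were seeded in 1536-well plates, using either one drug or a fixed anchor-drug dose plus five library-drug doses (not always all listed) in √10 steps. After 5 days, nuclei were counted on 4× images. Relative viability is treated-well nuclei count divided by vehicle-well nuclei count, and values are medians of duplicate plates.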

Crenolanib + Palbociclib = compound: CC1(COc2ccc3c(c2)ncn3-c2ccc3cccc(N4CCC(N)CC4)c3n2)COC1 [Crenolanib] + CC(=O)c1c(C)c2cnc(Nc3ccc(N4CCNCC4)cn3)nc2n(C2CCCC2)c1=O [Palbociclib] (partner 0.5 µM)
How it was run: as §1

Tivantinib + Vorinostat = compound: O=C1NC(=O)[C@@H](c2cn3c4c(cccc24)CCC3)[C@@H]1c1c[nH]c2ccccc12 [Tivantinib] + O=C(CCCCCCC(=O)Nc1ccccc1)NO [Vorinostat] (partner 1 µM)
How it was run: as §1

Crenolanib + Crizotinib = compound: CC1(COc2ccc3c(c2)ncn3-c2ccc3cccc(N4CCC(N)CC4)c3n2)COC1 [Crenolanib] + C[C@@H](Oc1cc(-c2cnn(C3CCNCC3)c2)cnc1N)c1c(Cl)ccc(F)c1Cl [Crizotinib] (partner 1 µM)
How it was run: as §1

Cell Line	relative viability (Tivantinib + Bortezomib; first compound 0.01 µM)	relative viability (Tivantinib + Bortezomib; first compound 0.03162 µM)	relative viability (Tivantinib + Bortezomib; first compound 0.1 µM)	relative viability (Tivantinib + Bortezomib; first compound 0.3162 µM)	relative viability (Crenolanib + Palbociclib; first compound 0.01 µM)	relative viability (Crenolanib + Palbociclib; first compound 0.03162 µM)	relative viability (Crenolanib + Palbociclib; first compound 0.1 µM)	relative viability (Crenolanib + Palbociclib; first compound 0.3162 µM)	relative viability (Crenolanib + Palbociclib; first compound 1 µM)	relative viability (Tivantinib + Vorinostat; first compound 0.01 µM)	relative viability (Tivantinib + Vorinostat; first compound 0.03162 µM)	relative viability (Tivantinib + Vorinostat; first compound 0.1 µM)	relative viability (Tivantinib + Vorinostat; first compound 0.3162 µM)	relative viability (Crenolanib + Crizotinib; first compound 0.01 µM)	relative viability (Crenolanib + Crizotinib; first compound 0.03162 µM)	relative viability (Crenolanib + Crizotinib; first compound 0.1 µM)	relative viability (Crenolanib + Crizotinib; first compound 0.3162 µM)	relative viability (Crenolanib + Crizotinib; first compound 1 µM)
LXF-289	1.04	1	0.922	1.04	0.628	0.595	0.62	0.648	0.618	0.756	0.725	0.733	0.778	0.81	0.745	0.777	0.753	0.81
NCI-H23	1.13	1.11	0.996	0.965	0.588	0.516	0.454	0.539	0.449	0.679	0.527	0.624	0.671	0.689	0.476	0.615	0.441	0.575
NCI-H322M	1.17	1.15	1.22	1.06	0.497	0.483	0.482	0.479	0.496	0.903	0.833	0.861		0.96	0.807	1	0.903	1.05
NCI-H441	0.525	0.651		0.449	0.261	0.236	0.217	0.262	0.242	0.844	0.762	0.563	0.708	0.684	0.738	0.56	0.772	0.846
NCI-H460	1.06	1.04	0.975	1.36	0.165	0.163	0.0988	0.15	0.145	0.665	0.67	0.71	0.404	0.935	0.924	0.904	1.19	0.831
NCI-H520	0.687	0.235	0.505	0.595	0.252	0.214	0.289	0.267	0.309	0.672	0.672	0.694	0.703	0.743	0.915	0.802	0.933	0.983
NCI-H647	0.977	0.848	0.775	1.14	0.401	0.341	0.434	0.363	0.51	0.541	0.598	0.579	0.962	1.07	1.03	1.03	1.01	1.03
NCI-H650	0.723		0.772	0.874	0.308	0.346	0.33	0.32	0.355	0.45	0.356	0.443	0.4	0.968	0.706	0.805	0.5	0.644
NCI-H661	0.897	0.782	0.9		0.433	0.416	0.424	0.408	0.43	0.849	0.792	0.752	0.659	1.04	1.08		1.05	1.15
NCI-H727	0.751	0.772	0.867		0.72	0.676	0.678	0.646	0.699	1.11	1.22	1.35		0.858	0.956	0.806	0.973	0.824
NCI-H838	0.712	0.61	0.683	0.786	0.244	0.232	0.21	0.232	0.205	0.728	0.724	0.693	0.776	0.883	0.855	0.821	0.872	0.772
NCI-H1355	1.31	1.18	1.17	1.21	0.405	0.457	0.4	0.472	0.351	0.611	0.571	0.675	0.61	1.15	1.07	0.973	1.06	0.894
NCI-H1437	0.503	0.344	0.425	0.434	0.33	0.322	0.301	0.293	0.332	0.877	0.82	0.829	0.853	1.02	1.04	1	1.04	0.897
NCI-H1650	0.215	0.213	0.225	0.176	0.397	0.281	0.324	0.308	0.387	0.605	0.448	0.651	0.553	1.08	0.917	0.916	1.1	0.696
NCI-H1651	0.957	1.03	0.918	0.942	0.531	0.518	0.516	0.522	0.495	0.554	0.612	0.559	0.542	0.895	0.924	0.855	0.937	0.826
NCI-H1666	0.856	0.828	0.744	0.803	0.657	0.678	0.594	0.63	0.694	1.04	0.915	1	0.913	1.05	0.917	1.01	0.885	1
NCI-H1734	0.932	1.01	0.843	1	0.515	0.369	0.372	0.338	0.376	0.8	0.745	0.768	0.818	0.684	0.708	0.657	0.778	0.693
NCI-H1755	0.974	0.94	0.934	1.01	0.466	0.443	0.46	0.454	0.473	0.861	0.793	0.695	0.917	0.835	0.932	0.832	0.917	0.854

Cell Line	relative viability (Tivantinib + Bortezomib; first compound 0.01 µM)	relative viability (Tivantinib + Bortezomib; first compound 0.03162 µM)	relative viability (Tivantinib + Bortezomib; first compound 0.1 µM)	relative viability (Tivantinib + Bortezomib; first compound 0.3162 µM)	relative viability (Crenolanib + Palbociclib; first compound 0.01 µM)	relative viability (Crenolanib + Palbociclib; first compound 0.03162 µM)	relative viability (Crenolanib + Palbociclib; first compound 0.1 µM)	relative viability (Crenolanib + Palbociclib; first compound 0.3162 µM)	relative viability (Crenolanib + Palbociclib; first compound 1 µM)	relative viability (Tivantinib + Vorinostat; first compound 0.01 µM)	relative viability (Tivantinib + Vorinostat; first compound 0.03162 µM)	relative viability (Tivantinib + Vorinostat; first compound 0.1 µM)	relative viability (Tivantinib + Vorinostat; first compound 0.3162 µM)	relative viability (Crenolanib + Crizotinib; first compound 0.01 µM)	relative viability (Crenolanib + Crizotinib; first compound 0.03162 µM)	relative viability (Crenolanib + Crizotinib; first compound 0.1 µM)	relative viability (Crenolanib + Crizotinib; first compound 0.3162 µM)	relative viability (Crenolanib + Crizotinib; first compound 1 µM)
NCI-H1915	0.982	0.961	0.946	0.975	0.513	0.57	0.507	0.522	0.389	0.492	0.496	0.49	0.568	0.9	0.896	0.868	0.856	0.855
NCI-H1975	0.411	0.366	0.442	0.405	0.623	0.575	0.498	0.568	0.555	0.752	0.754	0.685	0.77	1	1.15	0.978	1.03	0.892
NCI-H1993	1.16	1.05	1.14	0.79	0.596	0.704	0.621	0.688	0.579	0.84	0.704	0.728	0.66	0.875	0.871	0.875	0.806	0.9
NCI-H2009	1.01	0.646	1.01	1.1	0.219	0.22	0.251	0.186	0.19	0.735	0.672	0.746	0.715	1.07	1.01	1.01	1.06	0.815
NCI-H2023	1.06	0.654	0.915	0.826	0.358	0.373	0.386	0.434	0.335	0.698	0.676	0.62	0.516	0.708	0.706	0.639	0.814	0.622
NCI-H2085	0.994	0.972	1.02	1.06		0.46	0.475	0.512	0.485	0.805	0.673	0.752	0.669	0.942	0.993	0.902	0.804	0.845
NCI-H2087	0.759	0.639	0.664	0.893	0.248	0.249	0.233	0.211	0.318	0.724	0.672	0.722	0.477	0.693	0.919	0.809	0.992	0.965
NCI-H2126	1.09	1.11	1.09	1.06	0.343	0.352	0.335	0.352	0.372	0.723	0.482	0.772	0.512	1.05	1.04	0.978	1.09	1.02
NCI-H2228	0.886	0.908	1.13	0.932	0.758	0.866	0.629	0.92	0.815	0.639	0.527	0.651	0.733	0.483	0.38	0.407	0.577	0.516
NCI-H2347	1.07	1.01	1.13	1.01	0.458	0.453	0.395	0.435	0.481	0.622	0.436	0.518	0.498	0.934	0.624	0.506	0.59	0.72
NCI-H2405	0.582	0.982	0.848	0.976	0.584		0.39	0.541	0.539	1.17	1.04	1	1.26	0.899	0.94	0.623	0.809	0.837
NCI-H3122	1.05	1.03	1.04	0.995	0.177	0.193	0.196	0.196	0.206	1.09	0.943	0.947	1.11	0.27	0.288	0.298	0.267	0.321
PC-3 [JPC-3]	0.839	0.899	0.863	0.667	0.563		0.543	0.534	0.568	0.791	0.979	0.891	0.807	0.975	0.958	0.907	1.05	0.991
PC-14	0.873	0.917	0.777	0.822	0.489	0.53	0.473	0.593	0.354	0.832	0.821	0.755	0.356	0.902	0.93	0.825	0.966	1.03
RERF-LC-KJ	1.18	1.22	1.19	0.963	1.13	1.03	1.03	1.1	1.05	0.717	0.628	0.717	0.502	0.796	0.848	0.825	0.852	0.886
SK-LU-1	1.07	0.954	1.32	1.05	0.368	0.394	0.328	0.412	0.333	0.742	0.764	0.65	0.836	1	0.968	0.644	0.876	0.85
SW 1573	1.16	1.17	1.1	1.29	0.369	0.458	0.422	0.368	0.42	1.04	0.53	0.75	0.67	0.748	0.886	0.795	0.834	0.884
